Legend:
male ICR mice [1] = experiment: Suppression of spontaneous activity (SA) in mice, i.v.; format: in vivo, mouse; conditions: stimulation, @ 10 mg/kg, Table 6
Description: (§1) Male ICR mice (25-32 g), obtained from Harlan (Dublin, Va.), were housed in groups of five. All animals were kept in a temperature-controlled (20-22° C.) environment with a 12-hour light-dark cycle (lights on at 7 a.m.). Separate mice were used for testing each drug dose in the in vivo behavioral procedures. Brain tissue for binding studies was obtained from male Sprague-Dawley rats (150-200 g) purchased from Harlan Laboratories (Dublin, Va.).
(§2) Measurement of spontaneous activity in mice occurred in standard activity chambers interfaced with a Digiscan Animal Activity Monitor (Omnitech Electronics, Inc., Columbus, Ohio). A standard tail-flick apparatus and a digital thermometer (Fisher Scientific, Pittsburgh, Pa.) were used to measure antinociception and rectal temperature, respectively.
(§3) Resorcinols were synthesized in our labs (Organix, Inc., Woburn, Mass.) according to the procedure specified below and were suspended in a vehicle of absolute ethanol, Emulphor-620 (Rhone-Poulenc, Inc., Princeton, N.J.), and saline in a ratio of 1:1:18. Drugs were administered to the mice intravenously (i.v.) in the tail vein at a volume of 0.1 ml/10 g.
(§4) Prior to testing in the behavioral procedures, mice were acclimated to the experimental setting (ambient temperature 22-24° C.) overnight. Pre-injection control values were determined for rectal temperature and tail-flick latency (in sec). Five min after i.v. injection with drug or vehicle, mice were placed in individual activity chambers and spontaneous activity was measured for 10 min. […] Tail-flick latency was measured at 20 min post-injection. Maximum latency of 10 sec was used. Antinociception was calculated as percent of maximum possible effect {% MPE=[(test−control latency)/(10-control)]×100}. Control latencies typically ranged from 1.5 to 4.0 sec. At 30 min post-injection, rectal temperature was measured. This value was expressed as the difference between control temperature (before injection) and temperatures following drug administration (° C.). Different mice (n=5-6 per dose) were tested for each dose of each compound. Each mouse was tested in each of the 3 procedures.
(§5) Based on data obtained from numerous previous studies with cannabinoids, maximal cannabinoid effects in each procedure were estimated as follows: 90% inhibition of spontaneous activity, 100% MPE in the tail flick procedure, and −6° C. change in rectal temperature. ED50's were defined as the dose at which half maximal effect occurred. For drugs that produced one or more cannabinoid effect, ED50's were calculated separately using least-squares linear regression on the linear part of the dose-effect curve for each measure in the mouse tetrad, plotted against log10 transformation of the dose. For the purposes of potency comparison, potencies were expressed as μmol/kg.

male ICR mice [2] = experiment: Tail-flick antinociception (TF, % MPE) in mice, i.v.; format: in vivo, mouse; conditions: @ 10 mg/kg, Table 6
Description: as §1, §2, §3, §4, §5

male ICR mice [3] = experiment: Change in rectal temperature (RT) in mice, i.v.; format: in vivo, mouse; conditions: @ 10 mg/kg, Table 6
Description: as §1, §2, §3, §4, §5

male ICR mice [4] = experiment: Lethality noted in the mouse behavioral procedures, i.v.; format: in vivo; conditions: @ 30 mg/kg, Table 6
Description: as §1
Resorcinols were synthesized in our labs (Organix, Inc., Woburn, Mass.) according to the procedure specified below and were suspended in a vehicle of absolute ethanol, Emulphor-620 (Rhone-Poulenc, Inc., Princeton, N.J.), and saline in a ratio of 1:1:18. […]
Prior to testing in the behavioral procedures, mice were acclimated to the experimental setting (ambient temperature 22-24° C.) overnight. Pre-injection control values were determined for rectal temperature and tail-flick latency (in sec). Five min after i.v. injection with drug or vehicle, mice were placed in individual activity chambers and spontaneous activity was measured for 10 min. […] Tail-flick latency was measured at 20 min post-injection. […] Antinociception was calculated as percent of maximum possible effect {% MPE=[(test−control latency)/(10-control)]×100}. […] At 30 min post-injection, rectal temperature was measured. […]

**Q.** Which results are given for CCCCCCC(C)(C)c1cc(O)c(C2CCN(C)CC2)c(O)c1 [O-1662, 2-(1-Methylpiperidin-4-yl)-5-(1′,1′-dimethylheptyl)-resorcinol]?
**A.** S.A. % effect at dose (stim) (male ICR mice [1]): 77% stim@ 10; T.F. % effect at dose (male ICR mice [2]): 7 @ 10%; R.T. effect at dose (male ICR mice [3]): 1 °C; Lethality at dose (male ICR mice [4]): Lethal

From US7285687B2 (priority 2002, dated 2007)
